From patent publication US12714696B2, “Low dose fluralaner compositions for protection against parasitic invertebrate pest” (VIRBAC, priority 2019, dated 2026)
Values joined by “and” are separate entries in the source; they are usually repeats but may differ in a detail not shown here. Identical values can stand only once. Like-named read-outs stand apart in the source and are kept apart here.

Test: Pharmacokinetics after repeated oral administration of 250 μg/kg and 35 μg/kg of fluralaner in dogs after feeding
Format: in vivo, beagle dogs
Settings: for concentration at 24 h / concentration at 48 h / concentration at 72 h / concentration at 96 h / concentration at 120 h / concentration at 144 h / concentration at 168 h: beagle, dog, plasma, po
Experimental: The first objective is to obtain the pharmacokinetic parameters after repeated oral administration of […] and 35 μg/kg of fluralaner in dogs after feeding.
The second objective is to investigate the pharmacodynamics between the fluralaner plasmatic dose and the effectiveness against ticks. • IVP: Investigational Veterinary Product, is pure Fluralaner+DMSO (250 μg/kg on Days 0 to 3 (0.25 mL/kg), then 35 μg/kg on Days 4 to 9 (0.35 mL/kg), then 600 μg/kg on Day 11) • Control product is DMSO (0.25 mL/kg on Days 0 to 3, then 0.35 mL/kg on Days 4 to 9)
On Days 0, 1, 2 and 3, all dogs assigned to group 2 received the Investigational Veterinary Product. On Days 0 to 3 all dogs in group 1 received the control product at a volume equal to the dogs in group 2. Dogs assigned to group 1 received the control product and served as Placebo controls. The quantity of Investigational Veterinary Product and control product administered was calculated according to the dog's individual body weight measured on Day −1. […]
On days of administration of pre-Investigational Veterinary Product or Control Product, dogs were fed (the same dog food) approximately half of their normal daily ration 30 minutes to 35 minutes prior to administration. Food consumed by the time of administration was calculated and recorded. The remainder of their normal daily ration was fed immediately after administration.
The PK parameters of fluralaner were calculated using a non-compartmental approach.
The following rules were applied for the calculation of the PK parameters: • All the plasma concentrations, validated by the bioanalytical laboratory, were used for the PK analysis. • The actual blood sampling times were used throughout. • Concentrations below the Limit of Quantification (LOQ) value were considered as zero from time zero (pre-dose) up to the time at which the first quantifiable concentration above the LOQ value was observed. Concentrations below the LOQ value between two quantifiable concentrations were considered as missing. Trailing concentrations below the LOQ value were not used in calculations.
Cmax the observed maximum concentration in plasma measured after dosing.
λz the terminal rate constant (λz) was estimated by log-linear regression analysis on data points visually assessed, to be on the terminal log-linear phase. For the slope of the terminal elimination phase to be accepted as reliable, the following criteria were used: • the terminal data points were apparently randomly distributed about a single straight line (on visual inspection), • a minimum of three data points, including the last measured data point and excluding Cmax, were available for the regression.
t1/2 the terminal plasma half-life (t1/2) was calculated according to the following equation: […]

Cc1cc(C2=NOC(c3cc(Cl)cc(Cl)c3)(C(F)(F)F)C2)ccc1C(=O)NCC(=O)NCC(F)(F)F (stereo not drawn) [fluralaner, Fluralaner]
fluralaner concentration levels, individual animal (24 h, oral 250 μg/kg Days 0-3, 35 μg/kg Days 4-9, 600 μg/kg Day 11, dogs): 142 ng/mL and 158 ng/mL and 129 ng/mL | fluralaner concentration levels, individual animal (48 h, oral 250 μg/kg Days 0-3, 35 μg/kg Days 4-9, 600 μg/kg Day 11, dogs): 269 ng/mL and 283 ng/mL and 253 ng/mL | fluralaner concentration levels, individual animal (72 h, oral 250 μg/kg Days 0-3, 35 μg/kg Days 4-9, 600 μg/kg Day 11, dogs): 381 ng/mL and 378 ng/mL and 373 ng/mL | fluralaner concentration levels, individual animal (96 h, oral 250 μg/kg Days 0-3, 35 μg/kg Days 4-9, 600 μg/kg Day 11, dogs): 496 ng/mL and 572 ng/mL and 515 ng/mL | fluralaner concentration levels, individual animal (120 h, oral 250 μg/kg Days 0-3, 35 μg/kg Days 4-9, 600 μg/kg Day 11, dogs): 465 ng/mL and 535 ng/mL and 554 ng/mL | fluralaner concentration levels, individual animal (144 h, oral 250 μg/kg Days 0-3, 35 μg/kg Days 4-9, 600 μg/kg Day 11, dogs): 510 ng/mL and 447 ng/mL and 454 ng/mL | fluralaner concentration levels, individual animal (168 h, oral 250 μg/kg Days 0-3, 35 μg/kg Days 4-9, 600 μg/kg Day 11, dogs): 521 ng/mL and 536 ng/mL and 520 ng/mL | fluralaner concentration levels, individual animal (192 h, oral 250 μg/kg Days 0-3, 35 μg/kg Days 4-9, 600 μg/kg Day 11, dogs): 456 ng/mL and 558 ng/mL and 455 ng/mL | fluralaner concentration levels, individual animal (216 h, oral 250 μg/kg Days 0-3, 35 μg/kg Days 4-9, 600 μg/kg Day 11, dogs): 468 ng/mL and 551 ng/mL and 472 ng/mL and 493 ng/mL | fluralaner concentration levels, individual animal (240 h, oral 250 μg/kg Days 0-3, 35 μg/kg Days 4-9, 600 μg/kg Day 11, dogs): 423 ng/mL and 368 ng/mL and 724 ng/mL and 422 ng/mL | fluralaner concentration levels, individual animal (384 h, oral 250 μg/kg Days 0-3, 35 μg/kg Days 4-9, 600 μg/kg Day 11, dogs): 893 ng/mL and 523 ng/mL and 715 ng/mL and 1000 ng/mL | fluralaner concentration levels, individual animal (528 h, oral 250 μg/kg Days 0-3, 35 μg/kg Days 4-9, 600 μg/kg Day 11, dogs): 267 ng/mL and 373 ng/mL and 235 ng/mL and 517 ng/mL and 283 ng/mL | fluralaner concentration levels, individual animal (624 h, oral 250 μg/kg Days 0-3, 35 μg/kg Days 4-9, 600 μg/kg Day 11, dogs): 223 ng/mL and 280 ng/mL and 182 ng/mL and 403 ng/mL and 227 ng/mL | fluralaner concentration levels, individual animal (720 h, oral 250 μg/kg Days 0-3, 35 μg/kg Days 4-9, 600 μg/kg Day 11, dogs): 285 ng/mL and 275 ng/mL and 248 ng/mL and 187 ng/mL | steady state concentrations (after the fourth dose application 250 μg/kg per day (on Day 3)): not been reached | concentration at 24 h (24 h, oral 250 μg/kg Days 0-3, 35 μg/kg Days 4-9, 600 μg/kg Day 11, dogs, read-out: fluralaner concentration levels, individual animal): 160 ng/mL | concentration at 24 h (24 h, oral 250/35/600 μg/kg regimen, dogs, n=6, read-out: fluralaner concentration levels, GeoMean): 145 ng/mL | concentration at 24 h (24 h, oral 250/35/600 μg/kg regimen, dogs, n=6, read-out: fluralaner concentration levels, Maximum): 160 ng/mL | concentration at 24 h (24 h, oral 250/35/600 μg/kg regimen, dogs, n=6, read-out: fluralaner concentration levels, Mean): 146 ng/mL | concentration at 24 h (24 h, oral 250/35/600 μg/kg regimen, dogs, n=6, read-out: fluralaner concentration levels, Median): 146 ng/mL | concentration at 24 h (24 h, oral 250/35/600 μg/kg regimen, dogs, n=6, read-out: fluralaner concentration levels, Minimum): 129 ng/mL | concentration at 48 h (48 h, oral 250 μg/kg Days 0-3, 35 μg/kg Days 4-9, 600 μg/kg Day 11, dogs, read-out: fluralaner concentration levels, individual animal): 257 ng/mL | concentration at 48 h (48 h, oral 250/35/600 μg/kg regimen, dogs, n=6, read-out: fluralaner concentration levels, GeoMean): 269 ng/mL | concentration at 48 h (48 h, oral 250/35/600 μg/kg regimen, dogs, n=6, read-out: fluralaner concentration levels, Maximum): 312 ng/mL | concentration at 48 h (48 h, oral 250/35/600 μg/kg regimen, dogs, n=6, read-out: fluralaner concentration levels, Mean): 270 ng/mL | concentration at 48 h (48 h, oral 250/35/600 μg/kg regimen, dogs, n=6, read-out: fluralaner concentration levels, Median): 263 ng/mL | concentration at 48 h (48 h, oral 250/35/600 μg/kg regimen, dogs, n=6, read-out: fluralaner concentration levels, Minimum): 245 ng/mL | concentration at 72 h (72 h, oral 250 μg/kg Days 0-3, 35 μg/kg Days 4-9, 600 μg/kg Day 11, dogs, read-out: fluralaner concentration levels, individual animal): 366 ng/mL | concentration at 72 h (72 h, oral 250/35/600 μg/kg regimen, dogs, n=6, read-out: fluralaner concentration levels, GeoMean): 386 ng/mL | concentration at 72 h (72 h, oral 250/35/600 μg/kg regimen, dogs, n=6, read-out: fluralaner concentration levels, Maximum): 469 ng/mL | concentration at 72 h (72 h, oral 250/35/600 μg/kg regimen, dogs, n=6, read-out: fluralaner concentration levels, Mean): 388 ng/mL | concentration at 72 h (72 h, oral 250/35/600 μg/kg regimen, dogs, n=6, read-out: fluralaner concentration levels, Median): 376 ng/mL | concentration at 72 h (72 h, oral 250/35/600 μg/kg regimen, dogs, n=6, read-out: fluralaner concentration levels, Minimum): 361 ng/mL | concentration at 96 h (96 h, oral 250 μg/kg Days 0-3, 35 μg/kg Days 4-9, 600 μg/kg Day 11, dogs, read-out: fluralaner concentration levels, individual animal): 497 ng/mL | concentration at 96 h (96 h, oral 250/35/600 μg/kg regimen, dogs, n=6, read-out: fluralaner concentration levels, GeoMean): 524 ng/mL | concentration at 96 h (96 h, oral 250/35/600 μg/kg regimen, dogs, n=6, read-out: fluralaner concentration levels, Maximum): 602 ng/mL | concentration at 96 h (96 h, oral 250/35/600 μg/kg regimen, dogs, n=6, read-out: fluralaner concentration levels, Mean): 526 ng/mL | concentration at 96 h (96 h, oral 250/35/600 μg/kg regimen, dogs, n=6, read-out: fluralaner concentration levels, Median): 506 ng/mL | concentration at 96 h (96 h, oral 250/35/600 μg/kg regimen, dogs, n=6, read-out: fluralaner concentration levels, Minimum): 471 ng/mL | concentration at 120 h (120 h, oral 250 μg/kg Days 0-3, 35 μg/kg Days 4-9, 600 μg/kg Day 11, dogs, read-out: fluralaner concentration levels, individual animal): 495 ng/mL | concentration at 120 h (120 h, oral 250/35/600 μg/kg regimen, dogs, n=6, read-out: fluralaner concentration levels, GeoMean): 508 ng/mL | concentration at 120 h (120 h, oral 250/35/600 μg/kg regimen, dogs, n=6, read-out: fluralaner concentration levels, Maximum): 554 ng/mL | concentration at 120 h (120 h, oral 250/35/600 μg/kg regimen, dogs, n=6, read-out: fluralaner concentration levels, Mean): 509 ng/mL | concentration at 120 h (120 h, oral 250/35/600 μg/kg regimen, dogs, n=6, read-out: fluralaner concentration levels, Median): 515 ng/mL | concentration at 120 h (120 h, oral 250/35/600 μg/kg regimen, dogs, n=6, read-out: fluralaner concentration levels, Minimum): 465 ng/mL | concentration at 144 h (144 h, oral 250 μg/kg Days 0-3, 35 μg/kg Days 4-9, 600 μg/kg Day 11, dogs, read-out: fluralaner concentration levels, individual animal): 497 ng/mL | concentration at 144 h (144 h, oral 250/35/600 μg/kg regimen, dogs, n=6, read-out: fluralaner concentration levels, GeoMean): 491 ng/mL | concentration at 144 h (144 h, oral 250/35/600 μg/kg regimen, dogs, n=6, read-out: fluralaner concentration levels, Maximum): 550 ng/mL | concentration at 144 h (144 h, oral 250/35/600 μg/kg regimen, dogs, n=6, read-out: fluralaner concentration levels, Mean): 492 ng/mL | concentration at 144 h (144 h, oral 250/35/600 μg/kg regimen, dogs, n=6, read-out: fluralaner concentration levels, Median): 496 ng/mL | concentration at 144 h (144 h, oral 250/35/600 μg/kg regimen, dogs, n=6, read-out: fluralaner concentration levels, Minimum): 447 ng/mL | concentration at 168 h (168 h, oral 250 μg/kg Days 0-3, 35 μg/kg Days 4-9, 600 μg/kg Day 11, dogs, read-out: fluralaner concentration levels, individual animal): 491 ng/mL | concentration at 168 h (168 h, oral 250/35/600 μg/kg regimen, dogs, n=6, read-out: fluralaner concentration levels, GeoMean): 517 ng/mL | concentration at 168 h (168 h, oral 250/35/600 μg/kg regimen, dogs, n=6, read-out: fluralaner concentration levels, Maximum): 580 ng/mL
